# Measured values taken from patent publication US10611771B2, “Pyrazolo [3,4-d] pyrimidine derivative” (WEST CHINA HOSPITAL, SICHUAN UNIVERSITY, priority 2016, dated 2020).
# Where “and” joins values, the source holds several entries; their conditions need not be identical. Identical values can stand only once.
# Test system: A549 cells
# Experiment: MTT detection method, inhibitory effect against A549 cells
# Format: cell-based
# Excerpt: MTT detection method was used, and MTT is a yellow compound and a dye accepting hydrogen ions, and can be used as the respiratory chain in mitochondria of viable cells. Under the action of succinate dehydrogenase and cytochrome C, the tetrazolium ring broke to form blue formanzan crystal, and the formation amount of formanzan crystal was only directly proportional to the viable counts. The formanzan crystal formed by reduction can dissolve in dimethyl sulfoxide (DMSO), and the optical density (OD) value can be determined at 490 nm using ELISA, to reflect the viable counts.
# • Lung cancer cell lines: A549 and H1299. • Experimental materials: lung cancer cell lines, instruments and tools for cell culture, MTT, the compound mother liquid (10 mmol/L), and the positive control drug Src inhibitor pp1. 1. Specific Method • (3-1) Cell lines A549 and H1299 were recovered, and when the cells were in good conditions, namely cells grew to about 80% after one passage (i.e. the logarithmic growth phase), the cells were planked (96-well plate). • (3-2) Firstly, cells were collected, and the concentration of cell suspension was adjusted with counting chamber. Cells were seeded in 96-well plate at 1000˜10000 cells/well, and the detailed cell numbers in each well were dependent on the growth rate of different cells and the action time of drugs. A549 cells were seeded at 5000 cells, while H1299 cells were also seeded at 5000 cells, 200 μl for each well (100 μl cell suspension+100 μl drug dilution at different concentration gradient). The edge wells (36) were added 200 μl culture media (for prevention of edge effect). • (3-3) After planking and adding drugs, the plate was treated at 24 h, 48 h, and 72 h, and then for coloration, each well was added 200 μl culture media containing 20 μl MTT solution (5 mg/mL). The plate was continually cultured for 1˜4 hours, the incubation was stopped, and the culture supernatant fluid in each well was carefully absorbed. For suspension cells, the culture supernatant fluid in each well need be centrifuged before drawing. 150 μl DMSO was added to each well, and the plate was shaken on a shaking table for 15˜20 min, to allow the crystals to be completely dissolved. • (3-4) Colorimetry: The colorimetry was performed by ELISA, and the optical absorption value of each well was tested at a wavelength of 490 nm or 570 nm, and the result was recorded. • (3-5) Calculation Inhibition ratio=(the control−the drug)/the control×100% • IC50 (50% inhibitory concentration) can be calculated by spass software based on the inhibitory ratio at different concentration. II. Experimental Results • A549 cells were treated at 4 h, 24 h, 48 h, 72 h, and the drug dose was divided into the light concentration group (10 μm, 25 μm, 40 μm) and the high concentration group (50 μm, 80 μm, 100 μm), that were seeded at 6000 cells/well and 5000 cells/well, respectively, to carry out the experiment.
structure (smiles),measurement,setting,value
"Cc1ccc(-c2nn(C(C)(C)C)c3ncnc(N)c23)cc1 [PP1, reference compound]",The inhibitory ratio (%) for three parallel assays,"4 h, 10 μm",14.06% and 5.63% and 10.31%
same,The mean inhibitory ratio (%),"4 h, 10 μm",10.00%
same,The mean inhibitory ratio (%),"4 h, 25 μm",8.44%
same,The inhibitory ratio (%) for three parallel assays,"4 h, 40 μm",31.88% and 35.00% and 23.44%
same,The mean inhibitory ratio (%),"4 h, 40 μm",30.10%
same,The inhibitory ratio (%) for three parallel assays,"4 h, 50 μm",26.86% and 23.43% and 24.00%
same,The mean inhibitory ratio (%),"4 h, 50 μm",24.76%
same,The inhibitory ratio (%) for three parallel assays,"4 h, 80 μm",32.86% and 31.43% and 30.00%
same,The mean inhibitory ratio (%),"4 h, 80 μm",31.43%
same,The inhibitory ratio (%) for three parallel assays,"4 h, 100 μm",44.00% and 43.43%
same,The mean inhibitory ratio (%),"4 h, 100 μm",43.81%
same,The inhibitory ratio (%) for three parallel assays,"24 h, 10 μm",14.13% and 14.78% and 11.09%
same,The mean inhibitory ratio (%),"24 h, 10 μm",13.33%
same,The inhibitory ratio (%) for three parallel assays,"24 h, 25 μm",49.35% and 47.39% and 48.04%
same,The mean inhibitory ratio (%),"24 h, 25 μm",48.26%
same,The inhibitory ratio (%) for three parallel assays,"24 h, 40 μm",63.91% and 64.13% and 64.35%
same,The mean inhibitory ratio (%),"24 h, 40 μm",64.13%
same,The inhibitory ratio (%) for three parallel assays,"24 h, 50 μm",56.46% and 55.83% and 56.04%
same,The mean inhibitory ratio (%),"24 h, 50 μm",56.11%
same,The inhibitory ratio (%) for three parallel assays,"24 h, 80 μm",74.79% and 72.92% and 73.54%
same,The mean inhibitory ratio (%),"24 h, 80 μm",73.75%
same,The inhibitory ratio (%) for three parallel assays,"24 h, 100 μm",80.63% and 79.58% and 79.17%
same,The mean inhibitory ratio (%),"24 h, 100 μm",79.79%
same,The inhibitory ratio (%) for three parallel assays,"48 h, 10 μm",48.91% and 48.44% and 45.94%
same,The mean inhibitory ratio (%),"48 h, 10 μm",47.76%
same,The inhibitory ratio (%) for three parallel assays,"48 h, 25 μm",66.88% and 67.03% and 66.72%
same,The mean inhibitory ratio (%),"48 h, 25 μm",66.88%
same,The inhibitory ratio (%) for three parallel assays,"48 h, 40 μm",74.53% and 74.22%
same,The mean inhibitory ratio (%),"48 h, 40 μm",74.43%
same,The inhibitory ratio (%) for three parallel assays,"48 h, 50 μm",69.50% and 67.00% and 66.67%
same,The mean inhibitory ratio (%),"48 h, 50 μm",67.72%
same,The inhibitory ratio (%) for three parallel assays,"48 h, 80 μm",81.17% and 80.00% and 80.17%
same,The mean inhibitory ratio (%),"48 h, 80 μm",80.44%
same,The inhibitory ratio (%) for three parallel assays,"48 h, 100 μm",82.50% and 81.33% and 82.33%
same,The mean inhibitory ratio (%),"48 h, 100 μm",82.06%
same,The inhibitory ratio (%) for three parallel assays,"72 h, 10 μm",63.42% and 63.87% and 64.59%
same,The mean inhibitory ratio (%),"72 h, 10 μm",63.96%
same,The inhibitory ratio (%) for three parallel assays,"72 h, 25 μm",83.06% and 82.97% and 83.69%
same,The mean inhibitory ratio (%),"72 h, 25 μm",83.24%
same,The inhibitory ratio (%) for three parallel assays,"72 h, 40 μm",86.76% and 86.13% and 87.66%
same,The mean inhibitory ratio (%),"72 h, 40 μm",86.85%
same,The inhibitory ratio (%) for three parallel assays,"72 h, 50 μm",82.70% and 81.35% and 82.43%
same,The mean inhibitory ratio (%),"72 h, 50 μm",82.16%
same,The inhibitory ratio (%) for three parallel assays,"72 h, 80 μm",85.95% and 86.22% and 86.08%
same,The mean inhibitory ratio (%),"72 h, 80 μm",86.08%
same,The inhibitory ratio (%) for three parallel assays,"72 h, 100 μm",85.41% and 85.68%
same,The mean inhibitory ratio (%),"72 h, 100 μm",85.59%
